Assays:
Assay in all cases: agar diffusion antibacterial susceptibility assay
M. luteus ATCC 10240 = format: cell-based, Micrococcus luteus; conditions: ciprofloxacin in H2O, concentration per footnote mark b
Text: (§1) Representative Gram-positive strains included Bacillus subtilis, Staphylococcus aureus and Micrococcus luteus. The Gram-negative strains studied included Pseudomonas aeruginosa (a wild type K799/wt and a penetration mutant strain K799/61), Escherichia coli, and Acinetobacter baumannii.

A. baumannii ATCC 17961 = format: cell-based, Acinetobacter baumannii; conditions: ciprofloxacin in H2O, concentration per footnote mark b; 100 μM 2,2′-bipyridine
Text: The siderophore-ciprofloxacin conjugates 13 and 23 were first evaluated for their ability to inhibit the growth of bacteria using the agar well diffusion test. Representative Gram-positive strains included Bacillus subtilis, Staphylococcus aureus and Micrococcus luteus. The Gram-negative strains studied included Pseudomonas aeruginosa (a wild type K799/wt and a penetration mutant strain K799/61), Escherichia coli, and Acinetobacter baumannii.

S. aureus SG 511 = format: cell-based, Staphylococcus aureus; conditions: ciprofloxacin in H2O, concentration per footnote mark b
Text: as §1

B. subtilis ATCC 6633 = format: cell-based, Bacillus subtilis; conditions: ciprofloxacin in H2O, concentration per footnote mark c
Text: as §1

E. coli X580 = format: cell-based, Escherichia coli; conditions: ciprofloxacin in H2O, concentration per footnote mark d
Text: as §1

For `O=C(O)c1cn(C2CC2)c2cc(N3CCNCC3)c(F)cc2c1=O` [Ciprofloxacin, ciprofloxacin], the “Diameter of growth inhibition zones” value (M. luteus ATCC 10240) was 12P^b, the “Diameter of growth inhibition zones” value (A. baumannii ATCC 17961) was 15p^b and the “Diameter of growth inhibition zones” value (S. aureus SG 511) was 28^b mm. For the same molecule, the “Diameter of growth inhibition zones” value (B. subtilis ATCC 6633) was 28^c mm and the “Diameter of growth inhibition zones” value (E. coli X580) was 31^d mm.
